Measurements reported in PMC6409085, “Three odorant-binding proteins are involved in the behavioral response of Sogatella furcifera to rice plant volatiles” (PeerJ, 2019).
Where “and” joins values, the source holds several entries; their conditions need not be identical. Equal entries are not always repeated.

How the values were obtained:
SfurOBP2 = SfurOBP2 (Sogatella furcifera, UniProt V5T759); experiment: biochemical; format: binding
Procedure, shortened: (§1)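 First, 2.0 µM protein in 50 mM Tris-HCl (pH 7.4) was titrated with 1-NPN to obtain K1-NPN. Then odorants (2–20 µM final) competed against 2.0 µM 1-NPN, with fluorescence (ex 337 nm) recorded after 2 min. Ki was computed from IC50 via Ki = IC50/(1 + [1-NPN]/K1-NPN).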

SfurOBP11 = SfurOBP11 (Sogatella furcifera, UniProt V5T6E3); experiment: biochemical; format: binding
SfurOBP11, sequence (V5T6E3 entry or part of it): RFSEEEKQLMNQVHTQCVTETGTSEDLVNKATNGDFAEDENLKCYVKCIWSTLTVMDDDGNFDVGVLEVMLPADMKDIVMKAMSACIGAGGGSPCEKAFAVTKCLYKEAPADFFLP
Procedure, shortened: as §1

SfurOBP1 = SfurOBP1 (Sogatella furcifera, UniProt V5T8N5); experiment: biochemical; format: binding; conditions: for Fluorescence competitive binding assay, fluorescence intensity: OBP1, three replicate columns
SfurOBP1, sequence (V5T8N5 entry or part of it): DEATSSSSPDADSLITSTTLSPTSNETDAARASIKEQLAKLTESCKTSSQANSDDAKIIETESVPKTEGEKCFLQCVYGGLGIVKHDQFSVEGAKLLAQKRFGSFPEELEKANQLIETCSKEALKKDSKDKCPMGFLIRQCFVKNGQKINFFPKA
Procedure, shortened: as §1

SfurOBP3 = SfurOBP3 (Sogatella furcifera, UniProt V5T818); experiment: biochemical; format: binding; conditions: for Fluorescence competitive binding assay, fluorescence intensity: OBP3, three replicate columns
SfurOBP3, sequence (V5T818 entry or part of it): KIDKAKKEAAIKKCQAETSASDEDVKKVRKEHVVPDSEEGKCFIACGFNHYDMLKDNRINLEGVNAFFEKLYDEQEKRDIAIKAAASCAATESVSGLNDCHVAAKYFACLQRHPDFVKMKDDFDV
Procedure, shortened: as §1

S. furcifera adults = experiment: Y-tube olfactometer behavioral trials; format: in vivo, Sogatella furcifera; conditions: odorant 50 µL/L vs hexane; adults
Procedure, shortened: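 Single S. furcifera adults (2 days post-emergence, starved 0.5 h) chose between odorant (100 µL of 50 µL/L on filter paper) and hexane control in a glass Y-tube, charcoal-filtered humidified air 300 mL/min per arm, 25 ± 1 °C, 50% RH. Choice scored if insect passed half an arm and stayed >1 min within 10 min; 45 insects per compound, chi-squared test.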

SfurOBP2, sequence (V5T759 entry or part of it): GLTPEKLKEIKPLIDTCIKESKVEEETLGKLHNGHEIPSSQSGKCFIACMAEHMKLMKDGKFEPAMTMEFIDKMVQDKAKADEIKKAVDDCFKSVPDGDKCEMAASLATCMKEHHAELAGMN

SMILES: CCCCCCC=CCO [2-nonen-1-ol]
- IC50 (SfurOBP2; SfurOBP2, protein and 1-NPN both 2.0 µM, competitor 2-20 µM, read-out: IC50): > 20 µM
- Fluorescence competitive binding assay, OBP2 (raw fluorescence reading) (SfurOBP2; ligand concentration 2 (unit not given), replicate column 1 of 3): 23899
- Fluorescence competitive binding assay, OBP2 (raw fluorescence reading) (SfurOBP2; ligand concentration 2 (unit not given), replicate column 2 of 3): 21462
- Fluorescence competitive binding assay, OBP2 (raw fluorescence reading) (SfurOBP2; ligand concentration 2 (unit not given), replicate column 3 of 3): 22264
- Fluorescence competitive binding assay, OBP2 (raw fluorescence reading) (SfurOBP2; ligand concentration 4 (unit not given), replicate column 1 of 3): 25374
- Fluorescence competitive binding assay, OBP2 (raw fluorescence reading) (SfurOBP2; ligand concentration 4 (unit not given), replicate column 2 of 3): 25147
- Fluorescence competitive binding assay, OBP2 (raw fluorescence reading) (SfurOBP2; ligand concentration 4 (unit not given), replicate column 3 of 3): 24357
- Fluorescence competitive binding assay, OBP2 (raw fluorescence reading) (SfurOBP2; ligand concentration 6 (unit not given), replicate column 1 of 3): 25139
- Fluorescence competitive binding assay, OBP2 (raw fluorescence reading) (SfurOBP2; ligand concentration 6 (unit not given), replicate column 2 of 3): 24429
- Fluorescence competitive binding assay, OBP2 (raw fluorescence reading) (SfurOBP2; ligand concentration 6 (unit not given), replicate column 3 of 3): 24096
- Fluorescence competitive binding assay, OBP2 (raw fluorescence reading) (SfurOBP2; ligand concentration 8 (unit not given), replicate column 1 of 3): 22380
- Fluorescence competitive binding assay, OBP2 (raw fluorescence reading) (SfurOBP2; ligand concentration 8 (unit not given), replicate column 2 of 3): 22288
- Fluorescence competitive binding assay, OBP2 (raw fluorescence reading) (SfurOBP2; ligand concentration 8 (unit not given), replicate column 3 of 3): 21248
- Fluorescence competitive binding assay, OBP2 (raw fluorescence reading) (SfurOBP2; ligand concentration 10 (unit not given), replicate column 1 of 3): 20934
- Fluorescence competitive binding assay, OBP2 (raw fluorescence reading) (SfurOBP2; ligand concentration 10 (unit not given), replicate column 2 of 3): 21198
- Fluorescence competitive binding assay, OBP2 (raw fluorescence reading) (SfurOBP2; ligand concentration 10 (unit not given), replicate column 3 of 3): 20778
- Fluorescence competitive binding assay, OBP2 (raw fluorescence reading) (SfurOBP2; ligand concentration 12 (unit not given), replicate column 1 of 3): 19074
- Fluorescence competitive binding assay, OBP2 (raw fluorescence reading) (SfurOBP2; ligand concentration 12 (unit not given), replicate column 2 of 3): 19350
- Fluorescence competitive binding assay, OBP2 (raw fluorescence reading) (SfurOBP2; ligand concentration 12 (unit not given), replicate column 3 of 3): 18397
- Fluorescence competitive binding assay, OBP2 (raw fluorescence reading) (SfurOBP2; ligand concentration 14 (unit not given), replicate column 1 of 3): 16875
- Fluorescence competitive binding assay, OBP2 (raw fluorescence reading) (SfurOBP2; ligand concentration 14 (unit not given), replicate column 2 of 3): 19948
- Fluorescence competitive binding assay, OBP2 (raw fluorescence reading) (SfurOBP2; ligand concentration 14 (unit not given), replicate column 3 of 3): 17641
- Fluorescence competitive binding assay, OBP2 (raw fluorescence reading) (SfurOBP2; ligand concentration 16 (unit not given), replicate column 1 of 3): 16016
- Fluorescence competitive binding assay, OBP2 (raw fluorescence reading) (SfurOBP2; ligand concentration 16 (unit not given), replicate column 2 of 3): 16681
- Fluorescence competitive binding assay, OBP2 (raw fluorescence reading) (SfurOBP2; ligand concentration 16 (unit not given), replicate column 3 of 3): 14367
- Fluorescence competitive binding assay, OBP2 (raw fluorescence reading) (SfurOBP2; ligand concentration 18 (unit not given), replicate column 1 of 3): 17119
- Fluorescence competitive binding assay, OBP2 (raw fluorescence reading) (SfurOBP2; ligand concentration 18 (unit not given), replicate column 2 of 3): 16819
- Fluorescence competitive binding assay, OBP2 (raw fluorescence reading) (SfurOBP2; ligand concentration 18 (unit not given), replicate column 3 of 3): 15979
- Fluorescence competitive binding assay, OBP2 (raw fluorescence reading) (SfurOBP2; ligand concentration 20 (unit not given), replicate column 1 of 3): 16047
- Fluorescence competitive binding assay, OBP2 (raw fluorescence reading) (SfurOBP2; ligand concentration 20 (unit not given), replicate column 2 of 3): 15694
- Fluorescence competitive binding assay, OBP2 (raw fluorescence reading) (SfurOBP2; ligand concentration 20 (unit not given), replicate column 3 of 3): 13725
- IC50 (SfurOBP11; SfurOBP11, protein and 1-NPN both 2.0 µM, competitor 2-20 µM, read-out: IC50): > 20 µM
- Fluorescence intensity, fluorescence competitive binding assay, OBP11 (SfurOBP11; ligand concentration 2, replicate 1): 37643
- Fluorescence intensity, fluorescence competitive binding assay, OBP11 (SfurOBP11; ligand concentration 2, replicate 2): 35290
- Fluorescence intensity, fluorescence competitive binding assay, OBP11 (SfurOBP11; ligand concentration 2, replicate 3): 44360
- Fluorescence intensity, fluorescence competitive binding assay, OBP11 (SfurOBP11; ligand concentration 4, replicate 1): 35859
- Fluorescence intensity, fluorescence competitive binding assay, OBP11 (SfurOBP11; ligand concentration 4, replicate 2): 39342
- Fluorescence intensity, fluorescence competitive binding assay, OBP11 (SfurOBP11; ligand concentration 4, replicate 3): 34938
- Fluorescence intensity, fluorescence competitive binding assay, OBP11 (SfurOBP11; ligand concentration 6, replicate 1): 34140
- Fluorescence intensity, fluorescence competitive binding assay, OBP11 (SfurOBP11; ligand concentration 6, replicate 2): 38169
- Fluorescence intensity, fluorescence competitive binding assay, OBP11 (SfurOBP11; ligand concentration 6, replicate 3): 36155
- Fluorescence intensity, fluorescence competitive binding assay, OBP11 (SfurOBP11; ligand concentration 8, replicate 1): 32705
- Fluorescence intensity, fluorescence competitive binding assay, OBP11 (SfurOBP11; ligand concentration 8, replicate 2): 34472
- Fluorescence intensity, fluorescence competitive binding assay, OBP11 (SfurOBP11; ligand concentration 8, replicate 3): 34378
- Fluorescence intensity, fluorescence competitive binding assay, OBP11 (SfurOBP11; ligand concentration 10, replicate 1): 32486
- Fluorescence intensity, fluorescence competitive binding assay, OBP11 (SfurOBP11; ligand concentration 10, replicate 2): 33152
- Fluorescence intensity, fluorescence competitive binding assay, OBP11 (SfurOBP11; ligand concentration 10, replicate 3): 33818
- Fluorescence intensity, fluorescence competitive binding assay, OBP11 (SfurOBP11; ligand concentration 12, replicate 1): 28113
- Fluorescence intensity, fluorescence competitive binding assay, OBP11 (SfurOBP11; ligand concentration 12, replicate 2): 29890
- Fluorescence intensity, fluorescence competitive binding assay, OBP11 (SfurOBP11; ligand concentration 12, replicate 3): 30957
- Fluorescence intensity, fluorescence competitive binding assay, OBP11 (SfurOBP11; ligand concentration 14, replicate 1): 27880
- Fluorescence intensity, fluorescence competitive binding assay, OBP11 (SfurOBP11; ligand concentration 14, replicate 2): 28227
- Fluorescence intensity, fluorescence competitive binding assay, OBP11 (SfurOBP11; ligand concentration 14, replicate 3): 28574
- Fluorescence intensity, fluorescence competitive binding assay, OBP11 (SfurOBP11; ligand concentration 16, replicate 1): 24059
- Fluorescence intensity, fluorescence competitive binding assay, OBP11 (SfurOBP11; ligand concentration 16, replicate 2): 25490
- Fluorescence intensity, fluorescence competitive binding assay, OBP11 (SfurOBP11; ligand concentration 16, replicate 3): 25182
- Fluorescence intensity, fluorescence competitive binding assay, OBP11 (SfurOBP11; ligand concentration 18, replicate 1): 30643
- Fluorescence intensity, fluorescence competitive binding assay, OBP11 (SfurOBP11; ligand concentration 18, replicate 2): 29725
- Fluorescence intensity, fluorescence competitive binding assay, OBP11 (SfurOBP11; ligand concentration 18, replicate 3): 31591
- Fluorescence intensity, fluorescence competitive binding assay, OBP11 (SfurOBP11; ligand concentration 20, replicate 1): 30015
- Fluorescence intensity, fluorescence competitive binding assay, OBP11 (SfurOBP11; ligand concentration 20, replicate 2): 28576
- Fluorescence intensity, fluorescence competitive binding assay, OBP11 (SfurOBP11; ligand concentration 20, replicate 3): 24669
- Fluorescence competitive binding assay, fluorescence intensity (SfurOBP1; ligand concentration 2 (μM)): 6522 and 6473 and 6498
- Fluorescence competitive binding assay, fluorescence intensity (SfurOBP1; ligand concentration 4 (μM)): 5655 and 6432 and 6908
- Fluorescence competitive binding assay, fluorescence intensity (SfurOBP1; ligand concentration 6 (μM)): 8453 and 7604 and 7714
- Fluorescence competitive binding assay, fluorescence intensity (SfurOBP1; ligand concentration 8 (μM)): 8297 and 7919 and 6967
- Fluorescence competitive binding assay, fluorescence intensity (SfurOBP1; ligand concentration 10 (μM)): 6386 and 8717 and 6918
- Fluorescence competitive binding assay, fluorescence intensity (SfurOBP1; ligand concentration 12 (μM)): 6193 and 7108 and 6694
- Fluorescence competitive binding assay, fluorescence intensity (SfurOBP1; ligand concentration 14 (μM)): 6199 and 6820 and 8443
- Fluorescence competitive binding assay, fluorescence intensity (SfurOBP1; ligand concentration 16 (μM)): 5457 and 5916 and 5787
- Fluorescence competitive binding assay, fluorescence intensity (SfurOBP1; ligand concentration 18 (μM)): 6097 and 9706 and 8104
- Fluorescence competitive binding assay, fluorescence intensity (SfurOBP1; ligand concentration 20 (μM)): 6801 and 6290 and 6295
- IC50 (SfurOBP1; SfurOBP1, protein and 1-NPN both 2.0 µM, competitor 2-20 µM, read-out: IC50): > 20 µM
- Fluorescence competitive binding assay, fluorescence intensity (SfurOBP3; ligand concentration 2): 69777 and 64977 and 64069
- Fluorescence competitive binding assay, fluorescence intensity (SfurOBP3; ligand concentration 4): 69897 and 66654 and 59281
- Fluorescence competitive binding assay, fluorescence intensity (SfurOBP3; ligand concentration 6): 72805 and 63593 and 63408
- Fluorescence competitive binding assay, fluorescence intensity (SfurOBP3; ligand concentration 8): 68908 and 64822 and 61456
- Fluorescence competitive binding assay, fluorescence intensity (SfurOBP3; ligand concentration 10): 63843 and 54968 and 55110
- Fluorescence competitive binding assay, fluorescence intensity (SfurOBP3; ligand concentration 12): 59021 and 51372 and 52724
- Fluorescence competitive binding assay, fluorescence intensity (SfurOBP3; ligand concentration 14): 52703 and 46147 and 50940
- Fluorescence competitive binding assay, fluorescence intensity (SfurOBP3; ligand concentration 16): 47036 and 45518 and 44907
- Fluorescence competitive binding assay, fluorescence intensity (SfurOBP3; ligand concentration 18): 49989 and 48773 and 43710
- Fluorescence competitive binding assay, fluorescence intensity (SfurOBP3; ligand concentration 20): 40319 and 40656 and 42300
- IC50 (SfurOBP3; SfurOBP3, protein and 1-NPN both 2.0 µM, competitor 2-20 µM, read-out: IC50): > 20 µM
- number of insects choosing hexane arm (S. furcifera adults): 12
- number of insects choosing volatilies arm (S. furcifera adults): 18
- number of insects failed (no choice) (S. furcifera adults): 10
